Test [1] has as its target T1, 11β-hydroxysteroid dehydrogenase type 1 (murine 11βHSD1, m11βHSD1) (Mus musculus, UniProt P50172).
T1 construct: gene Hsd11b1; truncated form of recombinant m11βHSD1 protein (N23Δ)
Briefly: competitive inhibition of corticosterone oxidation by recombinant enzyme (Dixon plot, HPLC); also itself oxidised as a poor substrate (Km […]). In kind it is biochemical.

Test [2] deals with T1, 11β-hydroxysteroid dehydrogenase type 1 (murine 11βHSD1, m11βHSD1). Briefly: competitive inhibition of 11-DHC reduction by recombinant enzyme (Dixon plot, HPLC); also itself reduced as a poor substrate (Km […]). In kind it is biochemical.

T1 sequence (P50172 24-292): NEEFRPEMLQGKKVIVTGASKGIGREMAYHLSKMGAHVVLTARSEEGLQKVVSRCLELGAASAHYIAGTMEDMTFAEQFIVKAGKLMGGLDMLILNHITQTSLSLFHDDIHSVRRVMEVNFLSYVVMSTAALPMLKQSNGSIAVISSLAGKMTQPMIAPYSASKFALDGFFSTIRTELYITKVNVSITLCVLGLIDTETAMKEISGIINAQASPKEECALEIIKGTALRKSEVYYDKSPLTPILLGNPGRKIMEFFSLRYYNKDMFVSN

Regarding `CC(C)CCC[C@@H](C)[C@H]1CC[C@H]2[C@@H]3[C@@H](O)C=C4C[C@@H](O)CC[C@]4(C)[C@H]3CC[C@]12C` [7βOHC, 7β-hydroxycholesterol], the Ki in test [1] came to 0.91 ± 0.05 µM.
With `CC(C)CCC[C@@H](C)[C@H]1CC[C@H]2[C@@H]3C(=O)C=C4C[C@@H](O)CC[C@]4(C)[C@H]3CC[C@]12C` [7KC, 7-ketocholesterol], the inhibition constant (Ki) in test [2] came to 7.33 ± 1.76 µM.

(Values after publication PMC3694296, “11β-Hydroxysteroid dehydrogenase type 1 contributes to the balance between 7-keto- and 7-hydroxy-oxysterols in vivo” (Biochemical Pharmacology, 2013).)
